Experimental data reported in patent US12383626B2, “Polyoxazoline-drug conjugates with novel pharmacokinetic properties” (priority 2019, dated 2025).
Values joined by “and” are separate entries in the source; they are usually repeats but may differ in a detail not shown here. Equal values may be shown once.

Experiments:
[1] = Log P (n-octanol/water partitioning)
[2] = male, Sprague Dawley, rat, in vivo, sc, 0.5 mg/kg
Experimental: The plasma levels of drugs released into the blood stream were measured in rodent (Sprague Dawley rats) and non-human primates (Macaca fascicularis, cynomolgus monkeys) following single subcutaneous injections of their respective POZ conjugates with different linkers and drug loading wt %.
Male Sprague Dawley naive rats (age 8-9 weeks, weight 200-250 g) were acquired and placed in rat cages and allowed at least 3 days of acclimatization before the start of the dosing. Each test group contained 3 rats. The POZ conjugates were dissolved 5% dextrose injection and the pH of the solution was adjusted to about 4.0 with 0.1 N hydrochloric acid. Each animal received a single subcutaneous (SC) injection of test article solution equivalent to a dose of 1.5-1.6 mg/kg (based in drug equivalents) and at a volume of 1 mL/kg, and into the left flank using a 23 G BD precision glide needle. […] All blood samples were collected in pre-labeled BD Microtainer tubes containing NaF/disodium EDTA, gently mixed and placed in an ice batch. Plasma was harvested by centrifugation at 3000 rpm for 15 minutes at 4° C. Plasma aliquots of 100 μL were collected in separate tubes containing 10 μL of a solution of 3N HCl acid, gently mixed and immediately frozen and stored at −70° C.
The plasma samples were processed by the ‘protein crash’ method using cold acetonitrile.

Compound CCCCCCC(C)(C)c1cc(O)c2c(c1)OC(C)(C)[C@H]1CC=C(CO)C[C@H]21 [Dexanabinol, dexanabinol] has a logP [1] of 7.6.
In the case of CCCN(CCc1cccs1)[C@H]1CCc2c(O)cccc2C1 [Rotigotine, rotigotine], the “time to clear the body” value [2] is reported as “less than 24 hours” and the logP (physchem) is reported as 4.9.
In the case of C=C(C)[C@@H]1CCC(C)=C[C@H]1c1c(O)cc(CCCCC)cc1O [Cannabidiol, cannabidiol], the “Log Poct/wat” value ([1]; at 25° C., free drug) is reported as 6.1.
In the case of CCCCCc1cc(O)c2c(c1)OC(C)(C)[C@@H]1CCC(C)=C[C@@H]21 [Δ^9-THC, d9-tetrahydrocannabinol], the “Log P” value ([1]; free drug, listed as THC) is reported as 7.2 and 7.0.
